The values that follow come from patent publication US20080113927A1, “Indolopyrrolocarbazole derivatives and anti-tumor agent” (priority 2003, published 2008).

In test [1] the test system is Human lung cancer cells LX-1. Kind of test: Anti-tumor effect on LX-1 solid tumor transplanted subcutaneously in nude mice. Type of test: in vivo, nude mice (Balb/c-nu/nu). The following applies: LX-1 in nude mice. The text has this:
Method for Determining the Effects of the Agent on Animals
Female nude mice of 5 weeks of age (Balb/c-nu/nu) were obtained from Clea Japan, Inc. Human lung cancer cells LX-1 were obtained from the Japanese Foundation for Cancer Research Institute.
The synthesis of the control compound is described in JP-A No. 10-245390, Example 14.
The cancer cells were transplanted subcutaneously to nude mice so that solid cancer can be maintained. The solid cancer was sliced into 3 mm cubic blocks in physiological saline under ice cooling. One of the blocks was transplanted subcutaneously to a nude mouse to be used in experiment (Day 1). The cancer cells were grown subcutaneously in the mouse to form a tumor mass. The size of the mass was measured with a lapse of time, and when the volume reached 0.2 cm^3 or more (approximation by volume=major axis×minor axis^2÷2), administration of the drug was started. The drug was dissolved in 5% glucose solution and administered intravenously at the tail successively twice a week for 2 weeks (total 4 times). Two weeks after the administration, the percentage (T/C%) of the tumor volume (T) was calculated from the tumor volume (C) in the control group and that (T) in the test group as a tumor volume ratio.

Test [2] relates to MKN-45 (human stomach cancer cells). The test can be described thus: Cell-growth inhibitory activity against MKN-45 (WST-8 method). Type of test: cell-based. The following applies: 72 h, MKN-45 cells, 3 days incubation, read-out: 50% tumor growth inhibiting activity (IC50). As to the method:
Method for Determining the Effects of the Agent on Cells
Fetal calf serum (FCS) was obtained from Molgate and the DMEM culture medium from Asahi Technoglass Inc.
Human gastric cancer cell MKN-45 was obtained from the IBL Co., Ltd.
The cells were suspended in 10% FCS-DMEM medium and the suspension was distributed in a 96-well plastic plate in the amount of 1000 cells/50 microliter/well. The plate was incubated at 37° C. in 5% CO2-95% air overnight. Each drug was dissolved in dimethylsulfoxide or a suitable solvent by serial dilution and distributed in the wells at 50 microliters per well in which the cells had been added. The plate was incubated at 37° C. in 5% CO2-95% air for 3 days. The growth of the cultured cells was measured by the WST-8 method (H. Tominaga et al., Anal. Commun., 36, 47-50 (1999)). In the WST-8 method, 10 microliter of WST-8 reagent solution was added, and then incubated at 37° C. for 1 to 6 hours. After stirring the plate, the resulting formazan was quantitatively analyzed by colorimetry to determine the inhibition rate of the drug. Thus, 50% inhibitory concentration (IC50) for the growth was determined for each compound.
Background: Tetrazolium assays rely on reduction of a dye to a coloured formazan, in cell work by metabolically active cells.

Regarding `O=C1c2c(c3c4ccc(O)cc4n(C4OC(CO)C(O)C(O)C4O)c3c3[nH]c4cc(O)ccc4c23)C(=O)N1NCc1ccncc1` (stereo not shown) [Example 1], the “Anti-tumor activity against human lung cancer cells compared with the control compound” value in test [1] (comparison from Table 2) is “markedly a stronger anti-tumor activity”. Further, in test [1] (i.v. twice a week for 2 weeks, total dose 1200 mg/m^2, two weeks after the administration), the “Ratio of tumor volume Treated/Control (%)” value is 1% (1200 mg/m^2). Further, in test [2], the half-maximal inhibitory concentration (IC50) amounted to 0.71 nM.

With `O=C1c2c(c3c4ccc(O)cc4n(C4OC(CO)C(O)C(O)C4O)c3c3[nH]c4cc(O)ccc4c23)C(=O)N1NCc1ccccn1` (stereo not shown) [Example 2], the 50% inhibitory concentration (IC50) in test [2] stood at 1.4 nM.

For `O=C1c2c(c3c4ccc(O)cc4n(C4OC(CO)C(O)C(O)C4O)c3c3[nH]c4cc(O)ccc4c23)C(=O)N1NCc1cccnc1` (stereo not shown) [Example 3], the IC50 in test [2] amounted to 0.95 nM.

For the compound `O=C1c2c(c3c4ccc(O)cc4n(C4OC(CO)C(O)C(O)C4O)c3c3[nH]c4cc(O)ccc4c23)C(=O)N1NCCCc1cccnc1` (stereo not shown) [Example 4], the IC50 in test [2] was 6.3 nM.

For `O=C1c2c(c3c4ccc(O)cc4n(C4OC(CO)C(O)C(O)C4O)c3c3[nH]c4cc(O)ccc4c23)C(=O)N1NCc1ccoc1` (stereo not shown) [Example 5], in test [2], the half-maximal inhibitory concentration (IC50) is 2.8 nM.

Take `O=C1c2c(c3c4ccc(O)cc4n(C4OC(CO)C(O)C(O)C4O)c3c3[nH]c4cc(O)ccc4c23)C(=O)N1NCc1ccco1` (stereo not shown) [Example 6]: the IC50 in test [2] worked out at 5 nM.

As to `O=C1c2c(c3c4ccc(O)cc4n(C4OC(CO)C(O)C(O)C4O)c3c3[nH]c4cc(O)ccc4c23)C(=O)N1NCc1ccsc1` (stereo not shown) [Example 7], the IC50 in test [2] came to 2.7 nM.

As for `O=C1c2c(c3c4ccc(O)cc4n(C4OC(CO)C(O)C(O)C4O)c3c3[nH]c4cc(O)ccc4c23)C(=O)N1NCc1cccs1` (stereo not shown) [Example 8], the IC50 in test [2] was found to be 4.1 nM.

As a reminder, the IC50 is the concentration that inhibits the measured activity by half.
